Test results as given in patent publication US20250136606A1, “MODULATORS OF TRPML, THEIR COMPOSITIONS AND METHODS OF USE” (Caraway Therapeutics, Inc., priority 2021, published 2025).

How the values were obtained:
Assay type in all cases: cell-based
TRPML1 = TRPML1 (Homo sapiens, UniProt Q9GZU1); experiment: Fluorescent TRPML1 assay (Fluo4-AM calcium fluorescence in doxycycline-induced HEK-293 Trex cells)
How it was run: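 HEK-293 Trex cells stably expressing surface-directed mutant human TRPML1, induced with 0.5 µg/mL doxycycline overnight, were loaded with 1 µM Fluo4-AM and added to compound (6 nM–20 µM final, half-log steps, triplicate) in Ringer's with 10 mM calcium. Fluorescence ex 480/em 540; EC50 by non-linear regression versus plate controls.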

TRPML3 = target: T1, TRPML3 (Homo sapiens, UniProt Q8TDD5); experiment: Fluorescent TRPML3 assay (performed as for TRPML1, substituting the TRPML3 subtype)
T1 construct: expressed in transfected cells
T1 sequence (Q8TDD5 1-553): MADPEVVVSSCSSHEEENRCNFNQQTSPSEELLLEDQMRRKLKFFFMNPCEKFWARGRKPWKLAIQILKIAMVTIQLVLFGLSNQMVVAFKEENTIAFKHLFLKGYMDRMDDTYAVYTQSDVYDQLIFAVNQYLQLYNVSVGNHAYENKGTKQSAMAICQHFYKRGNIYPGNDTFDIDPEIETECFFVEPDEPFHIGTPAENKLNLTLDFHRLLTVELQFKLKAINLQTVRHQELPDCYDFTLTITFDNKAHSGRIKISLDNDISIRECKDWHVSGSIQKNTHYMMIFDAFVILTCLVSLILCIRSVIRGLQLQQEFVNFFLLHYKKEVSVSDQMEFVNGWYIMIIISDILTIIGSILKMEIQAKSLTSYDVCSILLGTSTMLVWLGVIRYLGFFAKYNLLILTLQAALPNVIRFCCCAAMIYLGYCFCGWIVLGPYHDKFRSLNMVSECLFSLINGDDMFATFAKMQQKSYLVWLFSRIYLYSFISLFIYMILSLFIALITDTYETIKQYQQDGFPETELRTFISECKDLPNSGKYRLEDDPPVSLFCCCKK
How it was run: (§1)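 Calcium-influx readout: Fluo4 fluorescence at 480/540 nm, normalised to positive and negative controls per plate, EC50 fitted by non-linear regression. Cells were HEK-293 Trex stable lines, channel expression induced overnight with 0.5 ug/mL doxycycline; tested at 20 micromolar down to 6 nanomolar final, half-log steps, triplicate.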

TRPML2 = target: T2, TRPML2 (Homo sapiens, UniProt Q8IZK6); experiment: Fluorescent TRPML2 assay (performed as for TRPML1, substituting the TRPML2 subtype)
T2 construct: expressed in transfected cells
T2 sequence (Q8IZK6 1-566): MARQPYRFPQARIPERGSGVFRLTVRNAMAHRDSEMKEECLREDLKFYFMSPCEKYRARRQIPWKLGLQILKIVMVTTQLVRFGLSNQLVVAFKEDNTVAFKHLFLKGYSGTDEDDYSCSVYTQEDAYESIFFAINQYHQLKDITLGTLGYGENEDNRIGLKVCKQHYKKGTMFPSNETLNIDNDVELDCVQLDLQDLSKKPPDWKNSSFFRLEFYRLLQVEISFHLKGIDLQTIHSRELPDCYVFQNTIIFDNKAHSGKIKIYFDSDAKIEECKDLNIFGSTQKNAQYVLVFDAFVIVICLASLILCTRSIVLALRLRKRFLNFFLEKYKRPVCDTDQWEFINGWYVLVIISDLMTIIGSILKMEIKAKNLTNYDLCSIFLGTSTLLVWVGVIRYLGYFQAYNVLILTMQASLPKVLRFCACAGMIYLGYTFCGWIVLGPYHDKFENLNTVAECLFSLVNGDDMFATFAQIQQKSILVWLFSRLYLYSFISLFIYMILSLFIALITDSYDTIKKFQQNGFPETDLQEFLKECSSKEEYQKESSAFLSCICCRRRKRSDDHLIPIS
How it was run: as §1

Sequence of TRPML1 (Q9GZU1 whole entry L15A/L16A/L577A/L578A, form open): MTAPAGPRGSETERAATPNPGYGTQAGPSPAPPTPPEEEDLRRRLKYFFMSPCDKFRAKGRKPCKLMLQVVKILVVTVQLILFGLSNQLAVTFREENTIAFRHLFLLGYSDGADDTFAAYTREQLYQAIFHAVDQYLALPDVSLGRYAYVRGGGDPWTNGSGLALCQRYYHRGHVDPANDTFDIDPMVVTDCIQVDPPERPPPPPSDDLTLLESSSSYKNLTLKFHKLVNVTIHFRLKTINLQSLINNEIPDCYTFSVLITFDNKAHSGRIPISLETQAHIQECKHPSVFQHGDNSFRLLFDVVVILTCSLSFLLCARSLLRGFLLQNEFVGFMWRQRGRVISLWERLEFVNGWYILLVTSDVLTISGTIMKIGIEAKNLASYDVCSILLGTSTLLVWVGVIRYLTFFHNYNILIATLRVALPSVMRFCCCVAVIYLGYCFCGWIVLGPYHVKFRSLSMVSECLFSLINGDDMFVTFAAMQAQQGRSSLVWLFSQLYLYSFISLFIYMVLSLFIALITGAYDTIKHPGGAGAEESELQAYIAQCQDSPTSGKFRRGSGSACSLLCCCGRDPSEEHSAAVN

Row | Compound | EC50 (TRPML1) [nM] | EC50 (TRPML3) [nM] | EC50 (TRPML2) [nM]
1 | Cc1ccnc(-n2cc(C3CC3)c3c(N4C[C@@H](C)N(C(=O)OC(C)(C)C)C[C@@H]4C)ncnc32)c1 [Compound 644, tert-butyl (2R,5S)-4-(5-cyclopropyl-7-(4-methylpyridin-2-yl)-7H-pyrrolo[2,3-d]pyrimidin-4-yl)-2,5-dimethylpiperazine-1-carboxylate] | 100 to 500 | 100 to 500 | 500 to 2000
2 | C[C@@H]1CN(c2ncnc3c2c(C2CCC2)cn3-c2cccc(C(F)(F)F)c2)[C@@H](C)CN1C(=O)OC(C)(C)C [Compound 645, tert-butyl (2R,5S)-4-(5-cyclobutyl-7-(3-(trifluoromethyl)phenyl)-7H-pyrrolo[2,3-d]pyrimidin-4-yl)-2,5-dimethylpiperazine-1-carboxylate] | 100 to 500 | 100 to 500 | 100 to 500
3 | C[C@@H]1CN(c2ncnc3c2c(C2CCC2)cn3-c2cccc(F)c2)[C@@H](C)CN1C(=O)OC(C)(C)C [Compound 646, tert-butyl (2R,5S)-4-(5-cyclobutyl-7-(3-fluorophenyl)-7H-pyrrolo[2,3-d]pyrimidin-4-yl)-2,5-dimethylpiperazine-1-carboxylate] | 500 to 2000 | 100 to 500 | > 2000
4 | C[C@@H]1CN(c2ncnc3c2c(C2CCC2)cn3-c2cccc(Cl)c2)[C@@H](C)CN1C(=O)OC(C)(C)C [Compound 647, tert-butyl (2R,5S)-4-(7-(3-chlorophenyl)-5-cyclobutyl-7H-pyrrolo[2,3-d]pyrimidin-4-yl)-2,5-dimethylpiperazine-1-carboxylate] | 100 to 500 | 500 to 2000 | 500 to 2000
5 | C[C@@H]1CN(c2ncnc3c2c(C2CCC2)cn3-c2cc(F)cc(F)c2)[C@@H](C)CN1C(=O)OC(C)(C)C [Compound 648, tert-butyl (2R,5S)-4-(5-cyclobutyl-7-(3,5-difluorophenyl)-7H-pyrrolo[2,3-d]pyrimidin-4-yl)-2,5-dimethylpiperazine-1-carboxylate] | 500 to 2000 | 100 to 500 | 500 to 2000
6 | C[C@@H]1CN(c2ncnc3c2c(-c2ccccc2F)cn3-c2cc(C(F)(F)F)ccn2)[C@@H](C)CN1C(=O)OC(C)(C)C [Compound 649, tert-butyl (2R,5S)-4-(5-(2-fluorophenyl)-7-(4-(trifluoromethyl)pyridin-2-yl)-7H-pyrrolo[2,3-d]pyrimidin-4-yl)-2,5-dimethylpiperazine-1-carboxylate] | < 100 | < 100 | < 100
7 | C[C@@H]1CN(c2ncnc3c2c(-c2ccccc2F)cn3-c2cncc(C#N)c2)[C@@H](C)CN1C(=O)OC(C)(C)C [Compound 650, tert-butyl (2R,5S)-4-(7-(5-cyanopyridin-3-yl)-5-(2-fluorophenyl)-7H-pyrrolo[2,3-d]pyrimidin-4-yl)-2,5-dimethylpiperazine-1-carboxylate] | < 100 | < 100 | < 100
8 | C[C@H]1CN(C(=O)OC(C)(C)C)CCN1c1ncnc2c1c(-c1ccccc1F)cn2-c1cc(C(F)(F)F)ccn1 [Compound 651, tert-butyl (S)-4-(5-(2-fluorophenyl)-7-(4-(trifluoromethyl)pyridin-2-yl)-7H-pyrrolo[2,3-d]pyrimidin-4-yl)-3-methylpiperazine-1-carboxylate] | < 100 | < 100 | < 100
9 | C[C@@H]1CN(c2ncnc3c2c(-c2ccccc2F)cn3-c2cc(C(F)(F)F)ccn2)[C@@H](C)CN1C(=O)OC1(C)CC1 [Compound 652, 1-methylcyclopropyl (2R,5S)-4-(5-(2-fluorophenyl)-7-(4-(trifluoromethyl)pyridin-2-yl)-7H-pyrrolo[2,3-d]pyrimidin-4-yl)-2,5-dimethylpiperazine-1-carboxylate] | < 100 | < 100 | 100 to 500
10 | C[C@@H]1CN(c2ncnc3c2c(-c2ccccc2F)cn3-c2cc(F)ccn2)[C@@H](C)CN1C(=O)OC1(C)CC1 [Compound 653, 1-methylcyclopropyl (2R,5S)-4-(5-(2-fluorophenyl)-7-(4-fluoropyridin-2-yl)-7H-pyrrolo[2,3-d]pyrimidin-4-yl)-2,5-dimethylpiperazine-1-carboxylate] | < 100 | < 100 | < 100
11 | C[C@@H]1CN(c2ncnc3c2c(C2CC2)cn3-c2cccc(Cl)c2)[C@@H](C)CN1C(=O)OC1(C)CC1 [Compound 654, 1-methylcyclopropyl (2R,5S)-4-(7-(3-chlorophenyl)-5-cyclopropyl-7H-pyrrolo[2,3-d]pyrimidin-4-yl)-2,5-dimethylpiperazine-1-carboxylate] | 100 to 500 | < 100 | > 2000
12 | C[C@@H]1CN(c2ncnc3c2c(C2CC2)cn3-c2cc(F)cc(F)c2)[C@@H](C)CN1C(=O)OC1(C)CC1 [Compound 655, 1-methylcyclopropyl (2R,5S)-4-(5-cyclopropyl-7-(3,5-difluorophenyl)-7H-pyrrolo[2,3-d]pyrimidin-4-yl)-2,5-dimethylpiperazine-1-carboxylate] | < 100 | 100 to 500 | < 100
13 | C[C@@H]1CN(c2ncnc3c2c(C2CC2)cn3-c2cccc(F)c2)CCN1C(=O)OC(C)(C)C [Compound 656, tert-butyl (R)-4-(5-cyclopropyl-7-(3-fluorophenyl)-7H-pyrrolo[2,3-d]pyrimidin-4-yl)-2-methylpiperazine-1-carboxylate] | < 100 | < 100 | 100 to 500
14 | C[C@@H]1CN(c2ncnc3c2c(C2CC2)cn3-c2cccc(F)c2)[C@@H](C)CN1C(=O)OC(C)(C)C [Compound 657, tert-butyl (2R,5S)-4-(5-cyclopropyl-7-(3-fluorophenyl)-7H-pyrrolo[2,3-d]pyrimidin-4-yl)-2,5-dimethylpiperazine-1-carboxylate] | < 100 | < 100 | < 100
15 | C[C@@H]1CN(c2ncnc3c2c(C2CC2)cn3-c2cccc(F)c2)[C@@H](C)CN1C(=O)OC1(C)CC1 [Compound 658, 1-methylcyclopropyl (2R,5S)-4-(5-cyclopropyl-7-(3-fluorophenyl)-7H-pyrrolo[2,3-d]pyrimidin-4-yl)-2,5-dimethylpiperazine-1-carboxylate] | < 100 | 100 to 500 | 500 to 2000
16 | C[C@@H]1CN(c2ncnc3c2c(C(F)(F)F)cn3-c2cc(F)ccn2)[C@@H](C)CN1C(=O)OC1(C)CC1 [Compound 659, 1-methylcyclopropyl (2R,5S)-4-(7-(4-fluoropyridin-2-yl)-5-(trifluoromethyl)-7H-pyrrolo[2,3-d]pyrimidin-4-yl)-2,5-dimethylpiperazine-1-carboxylate] | < 100 | 100 to 500 | > 2000
17 | C[C@H]1CN(C(=O)OC2(C)CC2)CCN1c1ncnc2c1c(C(F)(F)F)cn2-c1cccc(Cl)c1 [Compound 660, 1-methylcyclopropyl (S)-4-(7-(3-chlorophenyl)-5-(trifluoromethyl)-7H-pyrrolo[2,3-d]pyrimidin-4-yl)-3-methylpiperazine-1-carboxylate] | 100 to 500 | 100 to 500 | 500 to 2000
18 | C[C@@H]1CN(c2ncnc3c2c(C(F)(F)F)cn3-c2cc(F)cc(F)c2)[C@@H](C)CN1C(=O)OC1(C)CC1 [Compound 661, 1-methylcyclopropyl (2R,5S)-4-(7-(3,5-difluorophenyl)-5-(trifluoromethyl)-7H-pyrrolo[2,3-d]pyrimidin-4-yl)-2,5-dimethylpiperazine-1-carboxylate] | 100 to 500 | 100 to 500 | 500 to 2000
19 | C[C@@H]1CN(c2ncnc3c2c(C(F)(F)F)cn3-c2cncc(C#N)c2)[C@@H](C)CN1C(=O)OC(C)(C)C [Compound 662, tert-butyl (2R,5S)-4-(7-(5-cyanopyridin-3-yl)-5-(trifluoromethyl)-7H-pyrrolo[2,3-d]pyrimidin-4-yl)-2,5-dimethylpiperazine-1-carboxylate] | < 100 | < 100 | 100 to 500
